Values quoted from earlier work in article PMC5108082, “Pharmacokinetics, toxicity, and cytochrome P450 modulatory activity of plumbagin” (BMC Pharmacology & Toxicology, 2016).

Tests used:
[1] = system: 3D7 chloroquine-sensitive P. falciparum; settings: 3D7 clone; read-out: mean IC50; cited from earlier work
[2] = system: K1 chloroquine-resistant P. falciparum; settings: K1 clone; read-out: mean IC50; cited from earlier work

C=C[C@H]1C[N@@]2CC[C@H]1C[C@H]2[C@H](O)c1ccnc2ccc(OC)cc12 [quinine]
IC50 [1]: 52 nM | IC50 [2]: 133 nM

C[C@H]1[C@H](OC(=O)CCC(=O)O)O[C@@H]2O[C@@]3(C)CC[C@H]4[C@H](C)CC[C@@H]1[C@@]24OO3 [artesunate]
IC50 [1]: 2 nM | IC50 [2]: 1.5 nM

OC(c1cc(C(F)(F)F)nc2c(C(F)(F)F)cccc12)C1CCCCN1 (centres unmarked) [mefloquine]
IC50 [1]: 10 nM | IC50 [2]: 12 nM

CCN(CC)CCCC(C)Nc1ccnc2cc(Cl)ccc12 (centres unmarked) [chloroquine]
IC50 [1]: 8 nM | IC50 [2]: 130 nM
